The record followed here is paper PMC10622841, “Structural analysis of a bacterial UDP-sugar 2-epimerase reveals the active site architecture before and after catalysis” (The Journal of Biological Chemistry, 2023).

The target in test [1] is T1, T. thermophilus 2-epimerase (Thermus thermophilus, UniProt Q72KY0, D98N).
T1 construct: gene TT_C0285; full length, recombinant in E. coli Rosetta2(DE3); tag-free (rTEV-cut N-terminal His tag); homodimer, 82 kDa by gel filtration
Put plainly: X-ray crystallography; HPLC and mass spectrometry of copurified ligand. In kind it is binding. As to conditions: with UDP-GlcNAc3NAcA in the active site, pH 6.0-9.0.

The target of test [2] is T2, T. thermophilus 2-epimerase (Thermus thermophilus, UniProt Q72KY0).
T2 construct: gene TT_C0285; full length, recombinant in E. coli Rosetta2(DE3); tag-free (rTEV-cut N-terminal His tag); homodimer, 82 kDa by gel filtration
T2 sequence (Q72KY0 1-365): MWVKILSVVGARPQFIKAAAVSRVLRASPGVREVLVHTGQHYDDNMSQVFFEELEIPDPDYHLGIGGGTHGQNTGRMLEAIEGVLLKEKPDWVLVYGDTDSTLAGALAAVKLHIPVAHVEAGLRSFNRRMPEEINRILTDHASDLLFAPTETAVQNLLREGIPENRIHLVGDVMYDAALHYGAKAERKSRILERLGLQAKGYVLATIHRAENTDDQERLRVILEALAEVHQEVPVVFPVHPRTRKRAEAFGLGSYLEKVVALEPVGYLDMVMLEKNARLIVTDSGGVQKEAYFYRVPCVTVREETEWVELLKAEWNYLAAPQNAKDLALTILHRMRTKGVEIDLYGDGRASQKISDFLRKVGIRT
Put plainly: discontinuous anion-exchange HPLC assay. The conditions noted are these: allosteric activator; substrate UDP-GlcNAc3NAcA, pH 8.0, 37 °C, 44 μM enzyme. The class given is biochemical.

Test [3] deals with T2, T. thermophilus 2-epimerase. Put plainly: X-ray crystallography. In kind it is binding. The conditions noted are these: active site; formed from UDP-GlcNAc3NAcA during crystallization; pH 5.0 and 9.0; C-terminal His tag.
The target in test [4] is T1, T. thermophilus 2-epimerase. Put plainly: X-ray crystallography. The class given is binding. The conditions noted are these: active site; pH 6.0-9.0; C- or N-terminal His tag.
The target in test [5] is T. thermophilus 2-epimerase, WT enzyme, tag-free (Thermus thermophilus HB27). Put plainly: SEC; gel-filtration chromatography against standards (beta-amylase, acetyl CoA synthase, carbonic anhydrase, cytochrome c); conditions not given. (In gel filtration, larger molecules generally elute earlier.)

T1 sequence (Q72KY0 entry or part of it D98N): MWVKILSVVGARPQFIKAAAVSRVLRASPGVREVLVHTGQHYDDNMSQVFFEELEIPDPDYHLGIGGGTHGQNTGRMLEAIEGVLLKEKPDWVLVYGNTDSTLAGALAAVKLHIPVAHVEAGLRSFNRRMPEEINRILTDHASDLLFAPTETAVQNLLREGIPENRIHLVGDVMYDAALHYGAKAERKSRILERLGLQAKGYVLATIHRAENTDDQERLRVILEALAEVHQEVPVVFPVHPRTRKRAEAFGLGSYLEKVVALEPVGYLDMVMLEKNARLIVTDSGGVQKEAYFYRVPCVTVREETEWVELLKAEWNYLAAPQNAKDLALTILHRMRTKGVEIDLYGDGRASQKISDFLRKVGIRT

Turning to `CC(=O)N[C@H]1[C@@H](OP(=O)(O)OP(=O)(O)OC[C@H]2O[C@@H](n3ccc(=O)[nH]c3=O)[C@H](O)[C@@H]2O)O[C@H](CO)[C@@H](O)[C@@H]1O` [UDP-GlcNAc], the “X-ray crystallography; HPLC and mass spectrometry of copurified ligand” value in test [1] (allosteric pocket) was “UDP-GlcNAc3NAcA in the active site and UDP-GlcNAc in the auxiliary binding pocket”. In test [2], the “discontinuous anion-exchange HPLC assay” value is “the addition of UDP-GlcNAc was required for the reactions to proceed”. Turning to `CC(=O)N[C@@H]1[C@@H](OP(=O)(O)OP(=O)(O)OC[C@H]2O[C@@H](n3ccc(=O)[nH]c3=O)[C@H](O)[C@@H]2O)O[C@H](C(=O)O)[C@@H](O)[C@@H]1NC(C)=O` [UDP-ManNAc3NAcA], the X-ray crystallography result in test [3] is given as “the product, namely UDP-ManNAc3NAcA, was observed in each subunit”. For the molecule `O=c1ccn([C@@H]2O[C@H](COP(=O)(O)OP(=O)(O)O)[C@@H](O)[C@H]2O)c(=O)[nH]1` [UDP], the “X-ray crystallography; HPLC and mass spectrometry of copurified ligand” value in test [1] (allosteric (auxiliary) pocket) is “UDP-GlcNAc3NAcA was bound in the active site and UDP in the auxiliary binding pocket”.

In the case of `CC(=O)N[C@H]1[C@@H](OP(=O)(O)OP(=O)(O)OC[C@H]2O[C@@H](n3ccc(=O)[nH]c3=O)[C@H](O)[C@@H]2O)O[C@H](C(=O)O)[C@@H](O)[C@@H]1NC(C)=O` [UDP-GlcNAc3NAcA], the X-ray crystallography entry in test [4] is “each subunit of the dimer contained both UDP-GlcNAc3NAcA in the active site and UDP-GlcNAc”. As to “T. thermophilus 2-epimerase, WT enzyme, tag-free”, the stoichiometry N (usually a count of units in the complex or per binding partner) in test [5] was found to be 2.
